# Data from patent US8598339B2, “Withanolide isolated from Physalis longifolia and analogs and methods of use thereof” (University of Kansas, priority 2011, dated 2013).
# Where two headings read alike, the source gives them in different places.
# Legend:
# HS766T = experiment: Pancreatic cancer cell viability, HS766T; assay type: cell-based
# Description: (§1) The activity of the withanolides of this invention were tested in pancreatic cancer cells. […] Moreover, IC50 values were determined for these compounds (Table 14).
# [1] = test system: squamous cell carcinoma of head and neck cells JMAR; experiment: MTS cell viability assay, JMAR; assay type: cell-based
# Description: (§2) Human carcinoid cells, NCI-H727 (ATCC, Manassas, Va.), were cultured under standard conditions. Squamous cell carcinoma of head and neck cells, MDA1986 (Myers, et al. (2002) Clin. Cancer Res. 8:293) and JMAR (Swan, et al. (2003) Oral Oncol. 39:648-55); and melanoma cells lines B16F10 (ATCC, Manassas, Va.) and SKMEL28 (CLS, Eppelheim, Germany) were cultured in DMEM medium supplemented with 10% heat-inactivated fetal bovine serum (Sigma-Aldrich, St. Louis, Mo.), 1×MEM-essential amino acid, 1×MEM vitamin, and penicillin/streptomycin (Sigma-Aldrich, St. Louis, Mo.) in a humid environment of 5% CO2 at 37° C. Activity of withanolides against DRO81-1 and TT medullary thyroid cancer cells was also determined.
# (§3) Cells were cultured in 96 well plates at a concentration of 1-2×10^4 cells/mL. Cell viability was assessed with the nonradioactive cell proliferation MTS assay using Cell Titer 96AQUEOUS One Solution Reagent (PROMEGA, Madison, Wis.), according to the manufacturer's instruction. After a 72-hour treatment, 20 μL of Cell Titer 96AQUEOUS One Solution Reagent were added to each well and incubated for 3 hours at 37° C. 5% CO2, and formazan absorbance was measured at 490 nm.
# Mia PaCa-2 = experiment: Pancreatic cancer cell viability, Mia PaCa-2; assay type: cell-based; details: Homo sapiens
# Description: as §1
# melanoma cells B16F10 = experiment: MTS cell viability assay, B16F10; assay type: cell-based; details: Mus musculus
# Description: as §2, §3
# MRC-5 = experiment: MTS cell viability assay, MRC-5; assay type: cell-based; details: Homo sapiens
# [2] = test system: human melanoma SKMEL28 cells; experiment: MTS cell viability assay, SKMEL28; assay type: cell-based; details: Homo sapiens
# Description: as §2, §3
# A cell viability MTS assay was carried out to determine the anti-cancer effect of the withanolides on human melanoma SKMEL28 cells. Cells were treated for 72 hours and cell viability was determined according to the manufacturer's instruction.
# [3] = test system: squamous cell carcinoma of head and neck cells MDA1986; experiment: MTS cell viability assay, MDA1986; assay type: cell-based
# Description: as §2, §3
# [4] = test system: RET, mTOR, 4E-BP1, P70S6 kinase, akt, pERK in medullary thyroid cancer cells; experiment: Mechanistic pathway protein levels in medullary thyroid cancer cells; assay type: cell-based; details: for pERK / total and phosphorylated protein levels of RET, mTOR, 4E-BP1, P70S6 kinase: 24 hours, 0.25, 0.5, 1 or 3 μM
# Description: Additional analysis of X005, X032 and X033 was carried out in medullary thyroid cancer cells. […] Therefore, this analysis indicates the importance of this double bond in the A-ring to anti-cancer activity.
# Ames test strain TA98 = experiment: Ames test, TA98
# Ames test strain TA1535 = experiment: Ames test, TA1535
# Ames test strain TA100 = experiment: Ames test, TA100
# [5] = test system: heat shock factor (HSF) / HSE-luciferase in Hs766T cells; experiment: HSE-luciferase reporter, Hs766T; assay type: cell-based; set-up: dose or concentration left out as unconfirmed; details: heat shock 42° C. 30 minutes; recovery 8 hours
# Description: To monitor the activation of heat shock factor (HSF) and heat shock-mediated signal transduction pathways, Hs766T cells were transfected with a HSE-luciferase construct, then treated with 3 mM of the selected withanolides for 8 hours. The cells were heat shocked at 42° C. for 30 minutes and allowed to recover at 37° C. for 8 hours. Cells were lysed and luciferase activity was measured on a plate reader.
# [6] = test system: DRO81-1 medullary thyroid cancer cells; experiment: MTS cell viability assay, DRO81-1; assay type: cell-based; details: 72 h
# Description: as §2, §3
# [7] = test system: hsf1 and client proteins of Hsp90 in Hs766T cells; experiment: Western blot, Hs766T; assay type: cell-based
# [8] = test system: hsf1 and client proteins of Hsp90 in MIA PaCa-2 cells; experiment: Western blot, MIA PaCa-2; assay type: cell-based
# [9] = test system: HSF1, Hsp70 and Hsp40 mRNA; experiment: HSF1, Hsp70 and Hsp40 mRNA levels; assay type: cell-based; details: Control 1.0
# Description: Levels of HSF1, Hsp70 and Hsp40 mRNA were also determined in response to treatment with SX002 or X003 for 8 or 16 hours.
# [10] = test system: human carcinoid cells NCI-H727; experiment: MTS cell viability assay, NCI-H727; assay type: cell-based; details: NCI-H727, 72 h
# Description: as §2, §3
compound,measurement,setting,value
CC1=C(CO)C(=O)O[C@@H]([C@@H](C)[C@H]2CC[C@H]3[C@@H]4C[C@H]5O[C@]56[C@@H](O)[C@@H](OS(=O)(=O)O)CC(=O)[C@]6(CO)[C@H]4CC[C@]23C)C1 [Compound X017],IC50,HS766T; read-out: IC50,1.8 µM
same,IC50,[1]; Table 5,2.25 µM
same,IC50,"Mia PaCa-2; MIA PaCa2, read-out: IC50",1.4 µM
same,IC50,"melanoma cells B16F10; B16-F10, Table 5",1.33 µM
same,IC50,"MRC-5; MRC5, Table 5",3.33 µM
same,IC50,"[2]; SK-MEL-28, Table 5",4.8 µM
same,IC50,[3]; Table 5,2.02 µM
CC(=O)OC[C@]12C(=O)C=C[C@H](OC(C)=O)[C@]13O[C@@H]3C[C@H]1[C@@H]3CC[C@H]([C@H](C)[C@H]4CC(C)=C(C)C(=O)O4)[C@@]3(C)CC[C@@H]12 [Compound X033],pERK,[4],increased at higher concentrations
same,"total and phosphorylated protein levels of RET, mTOR, 4E-BP1, P70S6 kinase",[4],dose-dependent down-regulation
same,potency in pathway analysis relative to X001,[4]; medullary thyroid cancer cells,more potent than X001
same,IC50,[1]; Table 5,0.24 µM
same,IC50,"melanoma cells B16F10; B16-F10, Table 5",0.13 µM
same,IC50,"MRC-5; MRC5, Table 5",0.51 µM
same,IC50,"[2]; SK-MEL-28, Table 5",0.27 µM
same,IC50,[3]; Table 5,0.11 µM
CC(=O)O[C@H]1C=CC(=O)[C@]2(CO)[C@H]3CC[C@]4(C)[C@@H]([C@H](C)[C@H]5CC(C)=C(C)C(=O)O5)CC[C@H]4[C@@H]3C[C@H]3O[C@]132 [Compound X032],pERK,[4],increased at higher concentrations
same,"total and phosphorylated protein levels of RET, mTOR, 4E-BP1, P70S6 kinase",[4],dose-dependent down-regulation
same,potency in pathway analysis relative to X001,[4]; medullary thyroid cancer cells,more potent than X001
same,IC50,[1]; Table 5,0.12 µM
same,IC50,"melanoma cells B16F10; B16-F10, Table 5",0.19 µM
same,IC50,"MRC-5; MRC5, Table 5",0.16 µM
same,IC50,"[2]; SK-MEL-28, Table 5",0.64 µM
same,IC50,[3]; Table 5,0.49 µM
"CN(N=O)C(=O)N[C@H]1C(O)O[C@H](CO)[C@@H](O)[C@@H]1O (mixture of isomers) [Streptoxotocin, reference compound]",Positive Significance (− to +++),"Ames test strain TA98; 2.5E−06 M, TA98 +S9",−
same,Positive Significance (− to +++),"Ames test strain TA98; 2.5E−06 M, TA98 −S9",−
same,Positive Significance (− to +++),"Ames test strain TA1535; 2.5E−06 M, TA1535 +S9","++ (Strong positive, if p < 0.01, denoted as “++”.)"
same,Positive Significance (− to +++),"Ames test strain TA1535; 2.5E−06 M, TA1535 −S9","+++ (Very strong positive, if p < 0.001, denoted as “+++”.)"
same,Positive Significance (− to +++),"Ames test strain TA100; 2.5E−06 M, TA100 +S9","+++ (Very strong positive, if p < 0.001, denoted as “+++”.)"
same,Positive Significance (− to +++),"Ames test strain TA100; 2.5E−06 M, TA100 −S9","+++ (Very strong positive, if p < 0.001, denoted as “+++”.)"
CO[C@H]1CC(=O)[C@]2(CO)[C@H]3CC[C@]4(C)[C@@H]([C@H](C)[C@H]5CC(C)=C(CO)C(=O)O5)CC[C@H]4[C@@H]3C[C@H]3O[C@]32[C@H]1O [Compound X005],"RET, mTOR, 4E-BP1, p70S6 kinase and akt levels",[4]; medullary thyroid cancer cells,dose-dependent increase
same,IC50,[1]; Table 5,4.69 µM
same,IC50,"melanoma cells B16F10; B16-F10, Table 5",3.21 µM
same,IC50,"MRC-5; MRC5, Table 5",6.5 µM
same,IC50,"[2]; SK-MEL-28, Table 5",9.27 µM
same,IC50,[3]; Table 5,> 25 µM
"Nc1cccc2cc3ccccc3cc12 [Aminoanthracene, reference compound]",Positive Significance (− to +++),"Ames test strain TA98; 1.0E−05 M, TA98 +S9","+++ (Very strong positive, if p < 0.001, denoted as “+++”.)"
same,Positive Significance (− to +++),"Ames test strain TA98; 1.0E−05 M, TA98 −S9",−
same,Positive Significance (− to +++),"Ames test strain TA1535; 1.0E−05 M, TA1535 +S9","+++ (Very strong positive, if p < 0.001, denoted as “+++”.)"
same,Positive Significance (− to +++),"Ames test strain TA1535; 1.0E−05 M, TA1535 −S9",−
same,Positive Significance (− to +++),"Ames test strain TA100; 1.0E−05 M, TA100 +S9","+++ (Very strong positive, if p < 0.001, denoted as “+++”.)"
same,Positive Significance (− to +++),"Ames test strain TA100; 1.0E−05 M, TA100 −S9",−
CC1=C(CO)C(=O)O[C@@H]([C@@H](C)[C@H]2CC[C@H]3[C@@H]4C[C@H]5O[C@]56[C@@H](O)C=CC(=O)[C@]6(C)[C@H]4[C@@H](O)C[C@]23C)C1 [Compound X004],IC50,HS766T; read-out: IC50,1.6 µM
same,IC50,[1]; Table 5,0.77 µM
same,IC50,"Mia PaCa-2; MIA PaCa2, read-out: IC50",1.3 µM
same,IC50,"melanoma cells B16F10; B16-F10, Table 5",0.49 µM
same,IC50,"MRC-5; MRC5, Table 5",3.6 µM
same,IC50,"[2]; SK-MEL-28, Table 5",2.99 µM
same,IC50,[3]; Table 5,2.64 µM
CC1=C(C)C(=O)O[C@@H]([C@@H](C)[C@H]2CC[C@H]3[C@@H]4C[C@H]5O[C@]56[C@@H](O)C=CC(=O)[C@]6(CO)[C@H]4CC[C@]23C)C1 (stereo in doubt) [Compound X030],IC50,HS766T; read-out: IC50,0.8 µM
same,IC50,"Mia PaCa-2; MIA PaCa2, read-out: IC50",0.8 µM
same,heat shock-induced increase in luciferase activity,[5],substantially reduced
"CC(=O)OCC1=C(C)C[C@H]([C@@H](C)C2CC[C@H]3[C@@H]4C[C@H]5O[C@]56[C@@H](OC(C)=O)C=CC(=O)[C@]6(CO)[C@H]4CC[C@]23C)OC1=O (stereo partly shown) [Compound X002, 4,27-diactyl X001]",IC50,HS766T,0.4 µM
same,IC50,[6],0.48 µM
same,IC50,"[1]; Table 1, 72-hour treatment",0.14 µM
same,IC50,Mia PaCa-2,0.22 µM
same,heat shock-induced increase in luciferase activity,[5],substantially reduced
same,IC50,"melanoma cells B16F10; B16-F10, Table 1, 72-hour treatment",0.098 µM
same,stress and client protein response (western blot),[7],"induced oxidative and proteotoxic stress, while depleting hsf1 and client proteins of Hsp90"
same,IC50,"MRC-5; MRC5, Table 1, 72-hour treatment",0.41 µM
same,IC50,"[2]; SK-MEL-28, 72 h, Table 1, 72-hour treatment",0.81 µM
same,IC50,"[2]; SK-MEL-28, 72 h, Table 3, treated for 72 hours, NA = no activity",1.25 µM
same,stress and client protein response (western blot),[8],"induced oxidative and proteotoxic stress, while depleting hsf1 and client proteins of Hsp90"
same,HSF1 mRNA level,[9]; 8 hours,1.3
same,HSP40 mRNA level,[9]; 8 hours,13.1
same,HSP70 mRNA level,[9]; 8 hours,56.6
same,HSF1 mRNA level,[9]; 16 hours,1.1
same,HSP40 mRNA level,[9]; 16 hours,15.3
same,HSP70 mRNA level,[9]; 16 hours,196.7
same,IC50,[10],0.37 µM
same,IC50,"[3]; Table 1, 72-hour treatment",2.24 µM
